Experimental data reported in US5030647A, “Anti-inflammatory thienylbenzylamine compounds” (Boehringer Ingelheim Pharmaceuticals, Inc., priority 1990, dated 1991).
Counter-ions that a name gives are not always drawn. Like-named read-outs stand apart in the source and are kept apart here.

Tests used:
human PMN = assay: Chemotaxis of human peripheral leukocytes (human PMN chemotaxis, FMLP as chemoattractant); type: cell-based; conditions: Leukocyte, FMLP 1×10^-8 M; for inhibition at 1 µM: read-out: PERCENT INHIBITION (human PMN chemotaxis) 1 μM; for inhibition at 0.01 µM: read-out: PERCENT INHIBITION (human PMN chemotaxis) 0.01 μm
Experimental: A) Equal parts of citrated peripheral venous blood drawn from a normal volunteer were mixed with saline containing 6% dextran. The mixture was allowed to sediment for 30-40 minutes in a 50 ml polypropylene centrifuge tube. B) The plasma was decanted and centrifuged at 1500 rpm for 7 minutes and washed with saline. C) The supernatant was decanted and the contaminating red blood cells were eliminated by adding ice cold lysing solution and allowing the cell suspension to stand on ice for 5 minutes. […] E) The tubes were centrifuged at 400g for 30 minutes at room temperature. F) The supernatant was decanted and the PMNs (pelleted on the bottom of the tubes) were washed with saline and with Hanks buffer. The cells were adjusted to a final concentration of 3×10^6 cells/ml in Hanks buffer containing 0.5% BSA. 1) Chemoattractant: serial dilution was prepared of the stocks (10^-3 M) N-Formyl-methionyl-leucylphenylalanine in Hanks buffer and 130 μl of 1×10^-8 M solution was pipetted into the lower bottom chamber. The bottom chamber of the negative control was filled with saline. 2) Placed Millipore membranes to completely cover the wells and allowed the liquid to absorb. 3) Placed on upper chamber and tighten retaining nuts. 1) Sample preparation: Mixed equal volume of sample diluted in Hanks buffer containing […] and cell suspension in a test tube prior to pipetting 200 μl into appropriate duplicate chambers. 2) Incubated chambers at 37° C. for 40-60 minutes. 10) Three to five fields per membrane were counted with the aid of the Image Analyser (optimal 40-10). Special effort was made to select a standard for evaluating the cell monolayer in which the distribution of cells in the field of view is uniform. The number of cells at each […] level beneath the selected monolayer was then counted and the chemotactic index (CI) calculated by multiplying the individual cell count at each level by their corresponding depth of penetration, and taking the sum of these numbers. 11) The results in Table II are recorded as percent inhibition. Percent inhibition by each thienylbenzylamime was calculated as follows: [formula] The CI of the control was determined by conducting the assay with N-formyl-methionyl-leucylphenylalanine (FMLP) alone without any thienlbenzylamine. The background was determined by conducting the assay without any FMLP.

[1] = Hygroscopicity and stability in air of the hydrochloride salt; type: physicochemical
Experimental: D. Hydrochloride salt of 5-chloro-2[(2-dimethylaminomethylphenyl) hydroxymethyl]thiophene 1.0 g of the 5-chloro-2-[(2-dimethylaminomethylphenyl)hydroxymethyl]thiophene prepared in C was dissolved in ether. The etheral solution was cooled to -80° C. Upon addition of an ethereal HCl solution a white precipitate was obtained which was immediately filtered under N2 and dried in high vacuum without heating.

paw swelling = assay: Reverse passive Arthus reaction, inhibition of paw swelling after oral dosing; type: in vivo; conditions: Rattus norvegicus, po, 30 mg/kg oral, rats
Experimental: The reverse passive Arthus reaction is initiated by the interaction of antigen and antibody resulting in the formation of a precipitating immune complex, followed by fixation of complement, accumulation of leukocytes, edema and hemorrhage. The immunopathology of rheumatoid arthritis involves many of the parameters found in this reaction. Test groups (5 rats per group) are dosed orally with compounds one hour prior to the sub-plantar injection into the right hind paw of rabbit anti-ovalbumin antibody (50 μg/0.1 ml). Immediately afterwards, ovalbumin (Sigma, #5503) (5 mg/0.2 ml) is injected i.v. via the tail vein. The right hind paw volume is measured at hourly intervals, from one to four hours after the injection of the immune reactants. The change in paw volume for each animal is calculated by subtracting zero hour paw volume (before injection) from the paw volume at the time of measurement. The mean of these values is calculated for each group. Results are expressed in Table I below as percent inhibition of paw swelling compared to untreated controls.

[2] = 2 h, 2 hours, read-out: % INHIBITION (of paw swelling) HOUR 2
[3] = 3 h, 3 hours, read-out: % INHIBITION (of paw swelling) HOUR 3
[4] = 4 h, 4 hours, read-out: % INHIBITION (of paw swelling) HOUR 4

hygroscopicity [1]	stability in air ([1]; in air)	SMILES	inhibition at 1 µM (human PMN) [%]	inhibition at 0.01 µM (human PMN) [%]	inhibition in vivo at 30 mg/kg (paw swelling; [2]) [%]	inhibition in vivo at 30 mg/kg (paw swelling; [3]) [%]	inhibition in vivo at 30 mg/kg (paw swelling; [4]) [%]
extremely hygroscopic	unstable in air	CN(C)Cc1ccccc1C(O)c1ccc(Cl)s1.Cl (stereo not drawn) [Compound 2, 5-chloro-2-[(2-dimethylaminomethylphenyl)hydroxymethyl]thiophene hydrochloride]	76	57	–	–	–
–	–	CN(C)Cc1ccccc1C(O)c1sccc1Cl (stereo not drawn) [Compound 5, 3-chloro-2-[(2-dimethylaminomethylphenyl)hydroxymethyl]thiophene]	34	34	35.6	13.6	32.3
–	–	CCN(CC)Cc1ccccc1C(O)c1ccc(Cl)s1 (stereo not drawn) [Compound 6, 5-chloro-2-[(2-diethylaminomethylphenyl)hydroxymethyl]thiophene]	25	24	46	35.9	0
–	–	CCOC(c1ccc(Cl)s1)c1ccccc1CN(C)C (stereo not drawn) [Compound 7, 5-chloro-2-[(2-dimethylaminomethylphenyl)ethoxymethyl]thiophene]	41	37	24.2	0	0
–	–	CN(CCO)Cc1ccccc1C(O)c1ccc(Cl)s1 (stereo not drawn) [Compound 8]	42	35	26.9	18.2	2.8
–	–	COC(c1ccc(Cl)s1)c1ccccc1CN(CCO)CCO (stereo not drawn) [Compound 9, 5-chloro-2-[2-(N,N-diethanolaminomethyl-phenyl)methoxymethyl]thiophene]	49	23	20.8	3.6	0
–	–	CN(C)Cc1ccccc1C(=O)c1ccc(Cl)s1 [Compound 11, 5-chloro-2-(2-dimethylaminomethylbenzoyl)thiophene]	33	37	40.5	18.8	1.5
–	–	CN(C)Cc1ccccc1Cc1ccc(Cl)s1 [Compound 12, 5-chloro-2-(2-dimethylaminomethylphenylmethyl)thiophene]	52	54	65.8	51.1	25.5
–	–	CN1Cc2ccccc2C1c1ccc(Cl)s1 (stereo not drawn) [Compound 14]	51	0	64.4	49.9	17.8
–	–	CN(C)Cc1ccccc1C(O)c1ccsc1 (stereo not drawn) [Compound 21]	54	35	39	18	30
–	–	CN(C)Cc1ccccc1C(O)c1ccsc1Cl (stereo not drawn) [Compound 22, 2-chloro-3-[(2-N,N-dimethylaminomethylphenyl)hydroxymethyl]thiophene hydrochloride]	29	–	22	0	0
–	–	CN(C)Cc1ccccc1C(O)c1csc(Br)c1 (stereo not drawn) [Compound 23, 5-bromo-3-[(2-N,N-dimethylaminomethylphenyl)hydroxymethyl] thiophene hydrochloride]	34	–	72	66	44
–	–	CN(C)Cc1ccccc1C(O)c1csc(Cl)c1 (stereo not drawn) [Compound 24, 5-chloro-3-[(2-N,N-dimethylaminomethylphenyl)hydroxymethyl]thiophene hydrochloride]	19	–	51	54	53
–	–	CN(C)Cc1ccccc1C(C)(O)c1ccc(Cl)s1 (stereo not drawn) [Compound 33, N,N-dimethyl-2-[1-(5-chlorothien-2-yl)-1-hydroxyethyl]benzylamine hydrochloride]	26	26	66	60	40
